Laboratory results as given in publication PMC5309245, “Discovery and Characterization of Diazenylaryl Sulfonic Acids as Inhibitors of Viral and Bacterial Neuraminidases” (Frontiers in Microbiology, 2017).
Structures can show the parent of a compound that is named as a salt. Where two headings read alike, the source gives them in different places.

What was measured:
[1] = target: IAV HK/68 NA (whole virus) (Influenza A virus, UniProt Q91MA2); assay: biochemical; parameters: species or system influenza A virus A/Hong Kong/68 (H3N2); details: for IC50: NA inhibition using FL assay IC50, IAV HK/68
[2] = target: T1, S. pneumoniae DSM20566 NA (NanA) (Streptococcus pneumoniae, UniProt P62575); assay: FL NA inhibition assay, S. pneumoniae DSM20566; type: biochemical
T1 construct: host or cells: either rNanA from E. coli BL21(DE3) or total precipitated protein of S. pneumoniae DSM20566

[3] = target: T2, S. pneumoniae DSM20566 NA (Streptococcus pneumoniae, UniProt P62575); assay: HA-based NA inhibition assay, S. pneumoniae DSM20566; type: cell-based
T2 construct: host or cells: either rNanA from E. coli BL21(DE3) or total precipitated protein of S. pneumoniae DSM20566

[4] = tested on: influenza A virus 8178/09; assay: microbe, parasite or virus in culture; type: cell-based, influenza A virus A/Jena/8178/2009 (H1N1); details: for IC50: Influenza A virus, MDCK, 48 h, read-out: 50% inhibitory concentration, influenza A virus 8178/09
influenza A virus WSN/33 = assay: microbe, parasite or virus in culture; type: cell-based, influenza A virus A/WSN/1933 (H1N1); details: for IC50: Influenza A virus, WSN, MDCK, 48 h, read-out: 50% inhibitory concentration, influenza A virus WSN/33
influenza A virus HK/68 = assay: microbe, parasite or virus in culture; type: cell-based, influenza A virus A/Hong Kong/68 (H3N2); details: for IC50: Influenza A virus, MDCK, 48 h, read-out: 50% inhibitory concentration, influenza A virus HK/68
[5] = tested on: 8178/09-, WSN/33-, or HK/68-induced cytopathic effect; assay: CPE inhibition assay (viruses not separated); type: cell-based; details: Influenza A virus, MDCK, read-out: IC50 of inhibition of the 8178/09-, WSN/33-, or HK/68-induced cytopathic effect
S. pneumoniae DSM20566 [6] = assay: Microtiter broth microdilution assay, planktonic growth; type: cell-based, Streptococcus pneumoniae DSM20566; details: 18 h, maximum 50 μM; for IC50: Streptococcus pneumoniae, DSM20566, read-out: 50% inhibitory concentration, S. pneumoniae DSM20566 planktonic growth
[7] = tested on: S. pneumoniae DSM20566 biofilm; assay: Biofilm inhibition assay; type: cell-based, Streptococcus pneumoniae DSM20566; details: for inhibition at 50 µM: Streptococcus pneumoniae, DSM20566, read-out: Inhibition of biofilm formation at the maximum tested concentration; for 50% inhibitory concentration, S. pneumoniae DSM20566 biofilm formation: 24 h, maximum 50 μM
S. pneumoniae DSM20566 [8] = assay: Bactericidal or bacteriostatic activity (subculture on blood agar); type: cell-based, Streptococcus pneumoniae DSM20566; details: for cfu per agar plate: 18 h, then subculture
human erythrocytes [9] = type: cell-based
Procedure: (§1) Viral (whole virus) and bacterial NA activity as well as their inhibition were measured by using a fluorescence (FL) assay with the substrate 2′-(4-methylumbelliferyl)-α-D-N-acetylneuraminic acid sodium salt hydrate (MUNANA, 100 μM; Sigma-Aldrich GmbH, Taufkirchen, Germany), and/or a hemagglutination (HA)-based NA inhibition assay (HA assay) with human erythrocytes (Institute of Transfusion Medicine, University Hospital Jena, Jena, Germany), both assays as published recently (Richter et al., [2015]). Recombinant NanA (rNanA) and total precipitated bacterial protein of S. pneumoniae DSM20566 were used in FL and HA assays. Interference of the compounds with the FL signal (self-fluorescence and quenching) was excluded as described previously (Richter et al., [2015]). […] Each compound was tested at least three times in both NA inhibition assays.
Supplementary Table 1. Assay interference phenomena of test compounds in the HA-based […]
sample concentrations [µM] in viral HA-assay bacterial HA-assay […]
hem- prevention of erythrocyte hem- erythrocyte agglutinationa virus-induced lysisc agglutinationd lysise […]
cTest compounds lysed the human erythrocytes (2 h at 4°C). […]

human erythrocytes [10] = type: cell-based; remark: listed apart in the source
Procedure: as §1
Supplementary Table 1. […]
eTest compounds lysed the human erythrocytes (4 h at 37°C and 12 h at 4°C).

in vitro = details: dog
[11] = target: IAV WSN/33 NA-wt (whole virus) (Influenza A virus, UniProt P03470); assay: biochemical; parameters: species or system influenza A virus A/WSN/1933 (H1N1); details: for IC50: NA inhibition using FL assay IC50, IAV WSN/33
IAV 5258/09 NA = assay: Hemagglutination (HA)-based NA inhibition assay, IAV 5258/09; type: cell-based, influenza A virus A/Jena/5258/2009 (H1N1); details: human erythrocytes
[12] = target: S. pneumoniae recombinant NanA 8919_LC (Streptococcus pneumoniae, UniProt P62575); assay: biochemical; type: biochemical, Streptococcus pneumoniae CF8919; details: Km for MUNANA, kinetics with 1
[13] = target: S. pneumoniae recombinant NanA 20566_LC (Streptococcus pneumoniae, UniProt P62575); assay: biochemical; parameters: species or system Streptococcus pneumoniae DSM20566; details: Km for MUNANA, kinetics with 1
[14] = target: S. pneumoniae recombinant NanA 20566_CC (Streptococcus pneumoniae, UniProt P62575); assay: biochemical; parameters: species or system Streptococcus pneumoniae DSM20566; details: Km for MUNANA, kinetics with 1
[15] = target: S. pneumoniae recombinant NanA 9400_LC (Streptococcus pneumoniae, UniProt P62575); assay: biochemical; parameters: species or system Streptococcus pneumoniae CJ9400; details: Km for MUNANA, kinetics with 1
[16] = target: S. pneumoniae recombinant NanA 9400_CC (Streptococcus pneumoniae, UniProt P62575); assay: biochemical; type: biochemical, Streptococcus pneumoniae CJ9400; details: Km for MUNANA, kinetics with 1
[17] = target: Influenza virus A/WSN/33 NA-wt (whole virus) (Influenza A virus, UniProt P03470); type: biochemical, influenza A virus A/WSN/1933 (H1N1); details: Km for MUNANA, kinetics with 1
[18] = MUNANA substrate, read-out: NA inhibition using FL assay IC50, S. p. DSM20566
[19] = human erythrocytes, 4 h at 37°C and 12 h at 4°C

SMILES	IC50 [1]	IC50 [4]	IC50 (influenza A virus WSN/33)	IC50 (influenza A virus HK/68)	IC50 [5]	IC50 (S. pneumoniae DSM20566 [6])	inhibition at 50 µM [7]	CC50 (in vitro)	NA inhibition using FL assay IC50, IAV WSN/33 [11]	IC50 [2, 18]	NA inhibition using HA assay MIC, IAV 5258/09 (IAV 5258/09 NA)	NA inhibition using HA assay MIC, S. p. DSM20566 ([3]; human erythrocytes)	sample concentrations provoking erythrocyte lysis, viral HA-assay (human erythrocytes [9]; human erythrocytes, 2 h at 4°C)	sample concentrations provoking erythrocyte lysis, bacterial HA-assay (human erythrocytes [10]; [19])	also measured
O=S(=O)(O)c1ccc2c(/N=N/c3ccc(Sc4ccc(/N=N/c5c(O)ccc6cc(S(=O)(=O)O)ccc56)cc4)cc3)c(O)ccc2c1 [Compound 2]	83 ± 5.67 µM	9.09 ± 1.94 µM	11.8 ± 3.19 µM	6.19 ± 4.62 µM	< 15 µM	4.59 ± 2.45 µM	47%	> 100 µM							IC50 ([2]; NA inhibition using FL assay IC50, S. p. DSM20566): 1.85 ± 0.1 µM; NA inhibition using HA assay MIC, S. p. DSM20566 [3]: 10.00 ± 0.00 µM; Activity (bactericidal or bacteriostatic) (S. pneumoniae DSM20566 [8]; 25 µM): bacteriostatic; cfu per agar plate (S. pneumoniae DSM20566 [8]; 25 µM): > 150; Activity (bactericidal or bacteriostatic) (S. pneumoniae DSM20566 [8]; 50 µM): bacteriostatic; cfu per agar plate (S. pneumoniae DSM20566 [8]; 50 µM): > 150; sample concentrations provoking erythrocyte lysis, viral HA-assay (human erythrocytes [9]): no; sample concentrations provoking erythrocyte lysis, bacterial HA-assay (human erythrocytes [10]): no
O=S(=O)(O)c1ccc2c(/N=N/c3ccc(/N=N/c4ccccc4)cc3)c(O)ccc2c1 [Compound 3]		14.4 ± 8.16 µM	52.2 ± 17.9 µM	13.6 ± 3.18 µM	< 15 µM	20.1 ± 2.24 µM		> 100 µM	Not active	11.6 ± 0.15 µM	Not active^c	Not active^c	no	no	NA inhibition using FL assay IC50, IAV HK/68 [1]: Not active; 50% inhibitory concentration, S. pneumoniae DSM20566 biofilm formation [7]: Not active
Cc1ccccc1/N=N/c1ccc(/N=N/c2c(O)ccc3cc(S(=O)(=O)O)ccc23)c(C)c1 [Compound 4]	71.1 ± 22 µM	12.1 ± 4.83 µM	14 ± 2.68 µM	13.2 ± 3.11 µM	< 15 µM	12 ± 6.81 µM	46%	> 100 µM	Not active	4.79 ± 1.31 µM	Not active^c	Not active^c	no	100 µM	
O=S(=O)(O)c1ccc(/N=N/c2ccc(/N=N/c3ccc(O)c4ccccc34)cc2)cc1 [Compound 6]	83.4 ± 3.67 µM	10.6 ± 0.71 µM	24.2 ± 9.78 µM	20.8 ± 1.99 µM	< 15 µM	6.14 ± 0.61 µM	46%	> 100 µM		1.18 ± 0.55 µM	24.40 ± 12.47 µM	Not active^c	no	no	IC50 [11]: 36.4 ± 4.2 µM
COc1cc(/N=N/c2ccc(S(=O)(=O)O)cc2)ccc1/N=N/c1c(O)ccc2ccccc12 [Compound 7]	87.2 ± 8.03 µM	3.28 ± 2.19 µM	78.6 ± 16.2 µM	4.22 ± 0.98 µM	< 15 µM	3.32 ± 0.72 µM	46%	> 100 µM		5.6 ± 3.01 µM	Not active^c	Not active^c	no	no	IC50 [11]: 4.25 ± 1.25 µM
O=S(=O)(O)c1cc2cccc(S(=O)(=O)O)c2c(O)c1/N=N/c1ccccc1 [Compound 17]								> 100 µM	Not active		Not active	Not active	no	no	NA inhibition using FL assay IC50, IAV HK/68 [1]: Not active; NA inhibition using FL assay IC50, S. p. DSM20566 ([2]; MUNANA substrate): Not active; 50% inhibitory concentration, influenza A virus 8178/09 [4]: Not active; 50% inhibitory concentration, influenza A virus WSN/33 (influenza A virus WSN/33): Not active; 50% inhibitory concentration, influenza A virus HK/68 (influenza A virus HK/68): Not active; 50% inhibitory concentration, S. pneumoniae DSM20566 planktonic growth (S. pneumoniae DSM20566 [6]): Not active; 50% inhibitory concentration, S. pneumoniae DSM20566 biofilm formation [7]: Not active
C[C@@H](O)[C@H]1C(=O)N2C(C(=O)O)=C(SCCN=CN)C[C@H]12 [Imipenem, imipenem, reference compound]															Activity (bactericidal or bacteriostatic) (S. pneumoniae DSM20566 [8]; 0.1 µM): bactericidal; cfu per agar plate (S. pneumoniae DSM20566 [8]; 0.1 µM): < 150
CC(=O)N[C@H]1[C@H]([C@H](O)[C@H](O)CO)O[C@@](Oc2ccc3c(C)cc(=O)oc3c2)(C(=O)O)C[C@@H]1O [MUNANA, 2′-(4-methylumbelliferyl)-α-D-N-acetylneuraminic acid sodium salt hydrate, reference compound]															Km [12]: 18 ± 2.39 µM; Km [13]: 17.9 ± 2.12 µM; Km [14]: 20.2 ± 4.74 µM; Km [15]: 46.2 ± 1.71 µM; Km [16]: 46.4 ± 3.93 µM; Km ([17]; 20 min preincubation): 44.2 ± 4.63 µM; Km ([17]; without preincubation (n = 2)): 40 ± 3.86 µM
